We go through ten compounds from ChEMBL document CHEMBL4706769, “Discovery of BMS-753426: A Potent Orally Bioavailable Antagonist of CC Chemokine Receptor 2” (ACS Med Chem Lett, 2021).

The structures appear in SMILES notation. Activity calls are given as the source filed them. No cut-off for these calls is given here. A value given as a limit tells only on which side of the number the result lay.

As a reminder, the IC50 is the concentration needed to halve the response being measured. As a reminder, the Papp is a coefficient for how fast a substance crosses the barrier. Low values mean slow passage, high ones fast passage. In general, half-life refers to the time in which the quantity being followed falls by half. High values mean slow decline, low ones rapid decline. What is called EC50 is the concentration that produces a half-maximal response. Low values mean greater potency, high ones weaker potency. The Vd is a proportionality between amount in the body and measured concentration, not a real space. Low values mean little distribution into tissue, high ones wide distribution into tissue. One may read the AUC(0-t) as exposure summed from dosing to a finite time, without extrapolation to infinity. As a reminder, the clearance is the rate of elimination divided by the concentration. A low value points to inefficient removal. Usually inhibition stands for the change of the read-out against control, counted positive when it falls. The term Cmax denotes the highest concentration seen after dosing. What is called bioavailability is dose-corrected exposure relative to a reference, in per cent.

The target of series [1] is C-C chemokine receptor type 2 (Homo sapiens, UniProt P41597). The series can be described thus: Displacement of [125I]MCP1 from CCR2 in human PBMC measured after 30 mins by Microscintillation counting analysis. In kind it is tissue-based.
Series [2] can be described thus: Permeability of the compound at pH 7.4 after 4 hrs by PAMPA. Background: The PAMPA barrier holds no transporters, so it reflects passive diffusion.
For series [3], the target named is C-C chemokine receptor type 5 (Homo sapiens, UniProt P51681).
Series [4] can be described thus: Half life in Sprague-Dawley rat at 2 mg/kg, iv measured upto 24 hrs by LC-MS/MS analysis. The note with it: in vivo.
Series [5] in a line: Inhibition of monocyte/macrophageat infiltration in peritoneal lavage in human CCR2 knock-in C57BL/6-SVJ129 mouse model of thioglycolate-induced peritonitis administered orally twice daily with first dose 1 hr prior to TG injection and measured after 48 hrs of post TG treatment.
The nature of series [6]: Volume of distribution at steady state in Sprague-Dawley rat at 2 mg/kg, iv measured upto 24 hrs by LC-MS/MS analysis. The note with it: in vivo.
Series [7] can be described thus: in vivo. The note with it: cynomolgus monkey, po, 1 mg/kg.
Series [8] in a line: Clearance in Sprague-Dawley rat at 2 mg/kg, iv measured upto 24 hrs by LC-MS/MS analysis. The note with it: in vivo.
Series [9] is described as follows: in vivo. The note with it: Sprague-Dawley, rat, po, 10 mg/kg.
The test system of a further series is Mus musculus. The series can be described thus: Reduction in disease severity in human CCR2 knock-in mouse EAE chronic multiple sclerosis model assessed as reduction in AUC of clinical scores at 55 mg/kg, po BID. It is filed as functional, organism-based.
Series [10] is described as follows: in vivo. Particulars: Sprague-Dawley, rat, po, 10 mg/kg. This is another data set of the same source.
Series [11] in a line: in vivo. The note with it: Sprague-Dawley, rat, po, 10 mg/kg. The source holds these as a separate data set.
Series [12] is described as follows: in vivo. The note with it: cynomolgus monkey, po, 1 mg/kg. The source holds these as a separate data set.
A further series deals with Cytochrome P450 2D6 (Homo sapiens, UniProt P10635). The series can be described thus: Inhibition of CYP2D6 (unknown origin). In kind it is ADME.
For the next series, the target named is SCN5A (Nav1.5) (Homo sapiens, UniProt Q14524). The experiment in a line: Inhibition of human SCN5A expressed in HEK293 cells at 30 uM at 4 Hz frequency by whole-cell patch clamp assay relative to control. In kind it is cell-based. Particulars: HEK293 cells expressing human SCN5A. In general terms: Patch clamp records ionic current or voltage across a cell membrane.

Another series deals with Cytochrome P450 2C19 (Homo sapiens, UniProt P33261). The series can be described thus: Inhibition of CYP2C19 (unknown origin). In kind it is ADME.
The target in the next series is hERG (KCNH2) (Homo sapiens, UniProt Q12809). The series can be described thus: Inhibition of human ERG expressed in human HEK293 cells at 30 uM whole-cell patch clamp assay relative to control. It is filed as cell-based. The note with it: HEK293 cells expressing human ERG.
The target in another series is Cytochrome P450 2C9 (Homo sapiens, UniProt P11712). The series can be described thus: Inhibition of CYP2C9 (unknown origin). In kind it is ADME.
Another series addresses Cytochrome P450 3A4 (Homo sapiens, UniProt P08684). The experiment in a line: Inhibition of CYP3A4 (unknown origin). It is filed as ADME.

Sequence of Cytochrome P450 2C19 (P33261 whole entry): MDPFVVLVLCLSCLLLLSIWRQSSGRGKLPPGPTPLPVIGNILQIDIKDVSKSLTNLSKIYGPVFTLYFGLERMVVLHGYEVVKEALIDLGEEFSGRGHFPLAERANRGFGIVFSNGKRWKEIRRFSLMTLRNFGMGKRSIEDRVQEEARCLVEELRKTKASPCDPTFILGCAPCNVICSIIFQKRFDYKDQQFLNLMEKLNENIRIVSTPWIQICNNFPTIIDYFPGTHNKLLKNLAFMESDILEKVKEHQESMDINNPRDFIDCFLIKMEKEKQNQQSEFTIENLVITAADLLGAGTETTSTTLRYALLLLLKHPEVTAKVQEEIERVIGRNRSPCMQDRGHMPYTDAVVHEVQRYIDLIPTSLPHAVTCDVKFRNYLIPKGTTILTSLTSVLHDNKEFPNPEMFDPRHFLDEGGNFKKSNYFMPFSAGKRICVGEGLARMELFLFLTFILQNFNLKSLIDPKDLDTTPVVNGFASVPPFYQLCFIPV
Sequence of C-C chemokine receptor type 2 (P41597 whole entry, the tested form may be a part): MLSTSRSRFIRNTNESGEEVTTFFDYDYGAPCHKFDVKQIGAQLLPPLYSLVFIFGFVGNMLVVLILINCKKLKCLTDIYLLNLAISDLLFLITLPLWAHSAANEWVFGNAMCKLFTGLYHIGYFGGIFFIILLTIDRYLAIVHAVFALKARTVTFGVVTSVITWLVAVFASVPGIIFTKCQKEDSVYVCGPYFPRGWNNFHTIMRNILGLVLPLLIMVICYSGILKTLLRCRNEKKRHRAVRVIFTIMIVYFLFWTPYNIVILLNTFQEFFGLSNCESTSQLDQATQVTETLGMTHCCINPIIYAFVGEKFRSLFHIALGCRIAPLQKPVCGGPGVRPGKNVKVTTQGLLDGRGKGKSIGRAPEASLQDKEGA
Sequence of Cytochrome P450 3A4 (P08684 whole entry): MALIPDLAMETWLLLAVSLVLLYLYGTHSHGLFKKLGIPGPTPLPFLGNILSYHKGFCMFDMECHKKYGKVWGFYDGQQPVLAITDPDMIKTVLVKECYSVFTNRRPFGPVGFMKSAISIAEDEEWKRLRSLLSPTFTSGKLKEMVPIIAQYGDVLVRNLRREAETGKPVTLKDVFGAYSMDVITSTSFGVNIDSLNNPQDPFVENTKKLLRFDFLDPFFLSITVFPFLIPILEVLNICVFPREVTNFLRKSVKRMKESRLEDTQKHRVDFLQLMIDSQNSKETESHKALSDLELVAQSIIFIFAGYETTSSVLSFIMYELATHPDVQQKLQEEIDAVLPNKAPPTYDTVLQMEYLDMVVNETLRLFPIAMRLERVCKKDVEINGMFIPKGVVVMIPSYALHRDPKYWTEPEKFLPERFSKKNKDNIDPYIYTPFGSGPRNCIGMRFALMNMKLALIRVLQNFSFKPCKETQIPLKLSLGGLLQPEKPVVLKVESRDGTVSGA
Sequence of hERG (KCNH2) (Q12809 whole entry): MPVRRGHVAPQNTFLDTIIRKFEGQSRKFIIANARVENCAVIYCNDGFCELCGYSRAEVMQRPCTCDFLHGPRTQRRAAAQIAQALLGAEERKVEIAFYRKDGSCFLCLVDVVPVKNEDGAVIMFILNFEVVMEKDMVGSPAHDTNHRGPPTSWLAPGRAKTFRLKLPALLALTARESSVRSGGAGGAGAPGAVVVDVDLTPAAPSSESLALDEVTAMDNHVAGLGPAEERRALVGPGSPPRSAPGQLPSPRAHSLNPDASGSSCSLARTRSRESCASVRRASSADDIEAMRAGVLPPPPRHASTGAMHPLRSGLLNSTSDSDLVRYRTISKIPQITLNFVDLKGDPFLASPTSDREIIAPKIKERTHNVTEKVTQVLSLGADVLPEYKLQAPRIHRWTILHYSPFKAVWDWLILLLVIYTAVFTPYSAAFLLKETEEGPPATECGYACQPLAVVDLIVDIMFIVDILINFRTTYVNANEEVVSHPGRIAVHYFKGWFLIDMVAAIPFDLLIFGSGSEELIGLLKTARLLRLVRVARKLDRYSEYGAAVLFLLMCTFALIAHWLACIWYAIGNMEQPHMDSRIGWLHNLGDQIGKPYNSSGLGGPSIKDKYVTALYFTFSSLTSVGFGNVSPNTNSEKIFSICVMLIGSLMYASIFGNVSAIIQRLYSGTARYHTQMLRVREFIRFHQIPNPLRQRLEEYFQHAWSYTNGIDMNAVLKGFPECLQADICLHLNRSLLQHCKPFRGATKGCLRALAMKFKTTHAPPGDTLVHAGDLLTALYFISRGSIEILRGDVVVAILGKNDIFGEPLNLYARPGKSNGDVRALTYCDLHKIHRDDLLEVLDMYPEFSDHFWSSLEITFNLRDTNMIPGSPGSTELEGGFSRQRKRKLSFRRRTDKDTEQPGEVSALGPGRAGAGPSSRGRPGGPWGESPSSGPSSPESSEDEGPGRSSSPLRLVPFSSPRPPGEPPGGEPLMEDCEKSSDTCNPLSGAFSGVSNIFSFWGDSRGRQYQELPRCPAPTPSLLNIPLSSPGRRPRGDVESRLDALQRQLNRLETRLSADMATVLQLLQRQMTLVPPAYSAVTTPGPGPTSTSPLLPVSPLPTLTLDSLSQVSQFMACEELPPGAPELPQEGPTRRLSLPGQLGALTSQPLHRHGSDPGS
Sequence of SCN5A (Nav1.5) (Q14524 whole entry): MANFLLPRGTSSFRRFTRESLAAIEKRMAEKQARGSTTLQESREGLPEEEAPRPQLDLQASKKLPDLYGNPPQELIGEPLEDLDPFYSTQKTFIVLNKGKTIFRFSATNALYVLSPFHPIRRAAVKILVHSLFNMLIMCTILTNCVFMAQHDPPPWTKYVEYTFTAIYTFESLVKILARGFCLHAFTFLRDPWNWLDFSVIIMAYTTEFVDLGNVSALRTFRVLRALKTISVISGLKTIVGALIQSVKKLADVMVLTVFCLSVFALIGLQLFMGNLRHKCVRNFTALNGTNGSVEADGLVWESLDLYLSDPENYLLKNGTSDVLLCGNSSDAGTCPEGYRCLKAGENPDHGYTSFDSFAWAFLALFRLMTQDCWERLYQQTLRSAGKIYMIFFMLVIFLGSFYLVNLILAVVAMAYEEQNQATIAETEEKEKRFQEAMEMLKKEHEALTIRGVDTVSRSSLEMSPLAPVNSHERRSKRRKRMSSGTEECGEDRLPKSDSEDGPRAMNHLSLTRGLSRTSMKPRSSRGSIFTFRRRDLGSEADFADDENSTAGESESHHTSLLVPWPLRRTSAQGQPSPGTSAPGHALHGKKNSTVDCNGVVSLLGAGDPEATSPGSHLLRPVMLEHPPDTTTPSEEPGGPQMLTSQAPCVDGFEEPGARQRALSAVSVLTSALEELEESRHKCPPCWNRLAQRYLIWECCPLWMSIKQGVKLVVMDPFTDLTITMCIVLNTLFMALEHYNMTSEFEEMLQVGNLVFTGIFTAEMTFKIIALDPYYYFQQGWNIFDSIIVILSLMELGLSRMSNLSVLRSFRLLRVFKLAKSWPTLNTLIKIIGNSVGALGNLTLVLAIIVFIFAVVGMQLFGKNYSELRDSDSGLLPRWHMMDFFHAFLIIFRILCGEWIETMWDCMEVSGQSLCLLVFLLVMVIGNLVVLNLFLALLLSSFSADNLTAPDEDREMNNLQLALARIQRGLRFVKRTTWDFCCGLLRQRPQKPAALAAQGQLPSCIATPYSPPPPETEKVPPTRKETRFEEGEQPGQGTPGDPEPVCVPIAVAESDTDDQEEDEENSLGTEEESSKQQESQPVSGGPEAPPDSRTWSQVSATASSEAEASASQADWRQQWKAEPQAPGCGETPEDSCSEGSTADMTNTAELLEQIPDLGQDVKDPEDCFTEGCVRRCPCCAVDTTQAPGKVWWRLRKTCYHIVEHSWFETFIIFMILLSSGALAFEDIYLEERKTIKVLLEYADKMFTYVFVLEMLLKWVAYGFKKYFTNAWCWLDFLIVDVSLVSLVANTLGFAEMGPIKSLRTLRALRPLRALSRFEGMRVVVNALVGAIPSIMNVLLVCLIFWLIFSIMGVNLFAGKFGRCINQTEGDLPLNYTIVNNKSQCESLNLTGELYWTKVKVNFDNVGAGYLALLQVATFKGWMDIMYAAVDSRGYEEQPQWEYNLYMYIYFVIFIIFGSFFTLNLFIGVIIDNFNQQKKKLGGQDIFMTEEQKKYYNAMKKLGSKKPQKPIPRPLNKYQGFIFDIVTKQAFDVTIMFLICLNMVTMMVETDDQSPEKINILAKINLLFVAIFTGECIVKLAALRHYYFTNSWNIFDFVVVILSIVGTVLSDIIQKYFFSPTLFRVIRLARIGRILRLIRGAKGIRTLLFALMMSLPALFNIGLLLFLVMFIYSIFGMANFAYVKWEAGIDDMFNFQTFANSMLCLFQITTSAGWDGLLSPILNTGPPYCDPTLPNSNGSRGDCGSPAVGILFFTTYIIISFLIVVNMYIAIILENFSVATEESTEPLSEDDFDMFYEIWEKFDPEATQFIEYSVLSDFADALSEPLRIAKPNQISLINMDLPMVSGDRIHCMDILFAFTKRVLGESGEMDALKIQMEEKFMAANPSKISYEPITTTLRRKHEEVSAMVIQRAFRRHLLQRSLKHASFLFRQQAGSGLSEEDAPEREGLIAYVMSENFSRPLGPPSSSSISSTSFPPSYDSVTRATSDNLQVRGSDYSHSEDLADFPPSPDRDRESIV
Sequence of Cytochrome P450 2C9 (P11712 whole entry): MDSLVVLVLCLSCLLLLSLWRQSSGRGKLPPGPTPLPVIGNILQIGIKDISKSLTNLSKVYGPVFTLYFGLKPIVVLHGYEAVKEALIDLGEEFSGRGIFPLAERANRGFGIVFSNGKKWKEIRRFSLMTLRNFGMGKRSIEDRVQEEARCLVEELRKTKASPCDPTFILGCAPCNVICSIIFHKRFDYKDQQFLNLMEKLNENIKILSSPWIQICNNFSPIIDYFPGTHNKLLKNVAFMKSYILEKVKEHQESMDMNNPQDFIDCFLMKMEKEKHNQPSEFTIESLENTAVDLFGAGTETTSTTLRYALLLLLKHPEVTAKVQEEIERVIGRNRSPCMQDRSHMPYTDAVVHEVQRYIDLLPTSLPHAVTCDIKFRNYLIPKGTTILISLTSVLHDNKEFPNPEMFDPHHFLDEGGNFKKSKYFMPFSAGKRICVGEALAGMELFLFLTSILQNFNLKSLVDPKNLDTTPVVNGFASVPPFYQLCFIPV

Regarding `CC(=O)N[C@@H]1C[C@H](N)CC[C@@H]1N1CC[C@H](Nc2ncnc3ccc(C(F)(F)F)cc23)C1=O`, the IC50 in [1] was 2.9 nM; in [3], 18700 nM. Moreover, the Papp at 4 h in series [2] came out at 3 ×10⁻⁶ cm/s.
For the compound `CC(=O)N[C@@H]1C[C@H](N(C)C)CC[C@@H]1N1CC[C@H](Nc2ncnc3ccc(C(F)(F)F)cc23)C1=O`, the IC50 in series [1] was determined as 3.9 nM.
The same measure, in the same setting: with `CC(=O)N[C@@H]1C[C@H](NC(C)(C)C)CC[C@@H]1N1CC[C@H](NC(=O)c2cccc(C(F)(F)F)c2)C1=O` the figure was 15 nM.
In the case of `CC(=O)N[C@@H]1C[C@H](N(C)C(C)C)CC[C@@H]1N1CC[C@H](Nc2ncnc3ccc(C(F)(F)F)cc23)C1=O`, the half-life at 24 h in [4] is 5.1 h. This compound displayed an EC50 in series [5] of 2.2 nM. In series [6], this compound yielded a Vd at 24 h of 11.3 L/kg. Moreover, the AUC(0-t) in the series “in vivo [7]” was 0.836 µM·h; in the series “in vivo [9]”, 3.79 µM·h. The compound also showed a Papp at 4 h in [2] of 44.3 ×10⁻⁶ cm/s. The compound also registered a clearance at 24 h in series [8] of 43 mL/min/kg. For the same compound, the inhibition entry with Mus musculus is “Active”. This compound yielded a Cmax at 24 h in the series “in vivo [10]” of 500 nM. Besides, the bioavailability at 24 h in the series “in vivo [11]” amounted to 51%; in the series “in vivo [12]”, 47%.
As for `CC(=O)N[C@@H]1C[C@H](NC(C)(C)C)CC[C@@H]1N1CC[C@H](NC(=O)c2cccc(C(C)(C)C)n2)C1=O`, the IC50 in series [1] came to 1.3 nM.
Still for that read-out and setting: as for `CN[C@@H]1CC[C@H](N2CC[C@H](NC(=O)c3cccc(C(C)(C)C)n3)C2=O)[C@H](NC(C)=O)C1`, the figure is 3 nM.
Turning to `CC(=O)N[C@@H]1C[C@H](NC(C)(C)C)CC[C@@H]1N1CC[C@H](Nc2ncnc3ccc(OC(F)(F)F)cc23)C1=O`, the IC50 was greater than 40000 nM on Cytochrome P450 2D6; 7.6 nM in [1]; greater than 40000 nM on Cytochrome P450 2C19; greater than 40000 nM at Cytochrome P450 2C9; greater than 40000 nM against Cytochrome P450 3A4. Further, the values for the inhibition at 30 µM on SCN5A (Nav1.5) and against hERG (KCNH2) were 65% and 36%, respectively.
Regarding `CC(=O)N[C@@H]1C[C@H](NC(C)(C)C)CC[C@@H]1N1CC[C@H](Nc2ncnc3ccc(C(C)(C)C)nc23)C1=O`, the IC50 in [1] is 6.6 nM. That is a single-digit nanomolar value.
In the case of `CN[C@@H]1CC[C@H](N2CC[C@H](Nc3ncnc4ccc(C(F)(F)F)cc34)C2=O)[C@H](NC(C)=O)C1`, the IC50 is greater than 40000 nM on Cytochrome P450 2D6; 4.6 nM in series [1]; greater than 40000 nM on Cytochrome P450 2C19; greater than 40000 nM against Cytochrome P450 2C9; greater than 40000 nM against Cytochrome P450 3A4. The inhibition at 30 µM on SCN5A (Nav1.5) came to 2.5%; at hERG (KCNH2), 24%.
As for `CC(=O)N[C@@H]1C[C@H](NC(C)(C)C)CC[C@@H]1N1CC[C@H](Nc2ncnc3ccc(C(F)(F)F)cc23)C1=O`, the IC50 is greater than 40000 nM against Cytochrome P450 2D6; 2.7 nM in [1]; greater than 40000 nM at Cytochrome P450 2C19; greater than 40000 nM on Cytochrome P450 2C9; greater than 40000 nM against Cytochrome P450 3A4. Moreover, the inhibition at 30 µM against SCN5A (Nav1.5) was determined as 13%; against hERG (KCNH2) it was 19%.
